The values below come from US20080255186A1, “Pyrazolo[3,4-B]Pyridine Compound, and Its Use as a Pde4 Inhibitor” (priority 2005, published 2008).

The structures appear in SMILES notation.

Holding throughout (type): biochemical
Test [1] deals with PDE4D (human recombinant) (Homo sapiens, UniProt Q08499). Put plainly: PDE4D inhibition, IMAP Fluorescence Polarisation (FP) assay. The conditions noted are these: mean of n = 3 readings; accurate to about ±0.5 log unit; read-out: PDE4D pIC50 (± about 0.5) (FP assay), Mean pIC50 value (converted). From the text:
Human recombinant PDE4D (HSPDE4D3A) is disclosed in P. A. Baecker et al., “Isolation of a cDNA encoding a human rolipram-sensitive cyclic AMP phoshodiesterase (PDE IVD)”, Gene, 1994, 138, 253-256.
The ability of compounds to inhibit catalytic activity at PDE4B (human recombinant) or PDE4D (human recombinant) can optionally be determined by IMAP Fluorescence Polarisation (FP) assay (IMAP Explorer kit, available from Molecular Devices Corporation, Sunnydale, Calif., USA; Molecular Devices code: R8062) in 384-well format.
The IMAP FP assay is able to measure PDE activity in an homogenous, non-radioactive assay format. […] Binding of Fl-AMP product to the beads (coated with the immobilised trivalent cations) slows the rotation of the bound Fl-AMP and leads to an increase in the fluorescence polarisation ratio of parallel to perpendicular light. […]
Test compounds (small volume, e.g. ca. 0.5 to 1 microlitres (ul), suitably ca. 0.5 ul, of solution in DMSO) are preincubated at ambient temperature (room temperature, e.g. 19-23° C.) in black 384-well microtitre plates (supplier: NUNC, code 262260) with PDE enzyme in 10 mM Tris-HCl buffer pH 7.2, 1 mM MgCl2, 0.1% (w/v) bovine serum albumin, and 0.05% NaN3 for 10-30 minutes. […] The Fluorescence Polarisation (FP) ratio of parallel to perpendicular light is measured using an Analyst™ plate reader (from Molecular Devices Corporation). […]

A further test relates to PDE3 (from bovine aorta). Put plainly: PDE3 inhibition (FP or SPA general type of assay). The conditions noted are these: in the particular assays used. From the text: PDE3 can be purified from bovine aorta as described by H. Coste and P. Grondin, “Characterisation of a novel potent and specific inhibitor of type V phosphodiesterase”, Biochem. Pharmacol., 1995, 50, 1577-1585.
(§1) The ability of compounds to inhibit catalytic activity at PDE4B or 4D (human recombinant), PDE3 (from bovine aorta), PDE5 (human recombinant) or PDE6 (from bovine retina) can optionally be determined by Scintillation Proximity Assay (SPA) in a 96-well format.
(§2) Test compounds (as a solution in DMSO, suitably about 2 microlitre (ul) volume of DMSO solution) are preincubated at ambient temperature (room temperature, e.g. 19-23° C.) in Wallac Isoplates (code 1450-514) with PDE enzyme in 50 mM Tris-HCl buffer pH 7.5, 8.3 mM MgCl2, 1.7 mM EGTA, 0.05% (w/v) bovine serum albumin for 10-30 minutes (usually 30 minutes). […] Bound radioactive product is measured using a WALLAC TRILUX 1450 Microbeta scintillation counter. […] Curves are analysed using ActivityBase and XLfit (ID Business Solutions Limited, 2 Ocean Court, Surrey Research Park, Guildford, Surrey GU2 7QB, United Kingdom). Results are expressed as pIC50 values.
(§3) The compound of the invention (e.g. as prepared in Example 1) has also been tested for PDE3, PDE5 and PDE6 inhibition, e.g. using (independently for each PDE type) either a Fluorescence Polarisation (FP) general type of assay or using an SPA general type of assay.

The next test concerns the target PDE5 (human recombinant) (Homo sapiens, UniProt O76074). Put plainly: PDE5 inhibition (FP or SPA general type of assay). The conditions noted are these: in the particular assays used.
Text: Human recombinant PDE5 is disclosed in K. Loughney et al., “Isolation and characterisation of cDNAs encoding PDE5A, a human cGMP-binding, cGMP-specific 3′,5′-cyclic nucleotide phosphodiesterase”, Gene, 1998, 216, 139-147.
as §1, §2, §3

PDE4D (human recombinant), sequence (Q08499 1-673 isoform Q08499-2): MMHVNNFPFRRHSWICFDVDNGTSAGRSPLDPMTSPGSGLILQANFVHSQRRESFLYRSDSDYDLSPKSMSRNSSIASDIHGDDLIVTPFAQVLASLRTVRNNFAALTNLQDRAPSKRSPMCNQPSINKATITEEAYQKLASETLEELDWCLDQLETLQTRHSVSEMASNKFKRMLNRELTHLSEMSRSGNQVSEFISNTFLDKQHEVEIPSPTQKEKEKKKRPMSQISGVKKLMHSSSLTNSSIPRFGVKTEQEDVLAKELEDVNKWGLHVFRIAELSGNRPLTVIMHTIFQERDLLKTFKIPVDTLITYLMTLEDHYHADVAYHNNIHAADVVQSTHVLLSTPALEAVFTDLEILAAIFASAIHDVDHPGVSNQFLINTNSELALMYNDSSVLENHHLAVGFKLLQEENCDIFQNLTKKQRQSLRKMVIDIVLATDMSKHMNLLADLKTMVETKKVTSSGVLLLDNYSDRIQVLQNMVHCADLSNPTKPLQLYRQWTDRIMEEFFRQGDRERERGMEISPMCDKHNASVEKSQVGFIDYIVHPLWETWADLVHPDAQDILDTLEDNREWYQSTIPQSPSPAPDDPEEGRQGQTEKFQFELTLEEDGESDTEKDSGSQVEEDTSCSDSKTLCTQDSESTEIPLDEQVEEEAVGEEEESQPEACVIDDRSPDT

For the molecule `CCc1nc2c(cnn2CC)c(NC2CCOCC2)c1CNC(=O)c1cc(C)no1` [Example 1, N-{[1,6-diethyl-4-(tetrahydro-2H-pyran-4-ylamino)-1H-pyrazolo[3,4-b]pyridin-5-yl]methyl}-3-methyl-5-isoxazolecarboxamide], the IC50 in test [1] was about 0.1 nM. Further, the “PDE4B pIC50 compared with PDE3 pIC50 (selectivity)” value in the test on PDE3 (from bovine aorta) is “inhibits PDE4B more strongly than it inhibits PDE3, PDE5 and PDE6”. Also, the “PDE4B pIC50 compared with PDE5 pIC50 (selectivity)” value at PDE5 (human recombinant) was “inhibits PDE4B more strongly than it inhibits PDE3, PDE5 and PDE6”.
